Reference: patent publication US20230181614A1, “ADMINISTRATION OF CITICOLINE TO IMPROVE COGNITIVE PERFORMANCE, ATTENTIONAL PERFORMANCE, AND MOTOR FUNCTION” (KYOWA HAKKO BIO CO., LTD., priority 2014, published 2023)
Where “and” joins values, the source holds several entries; their conditions need not be identical. Equal values may be shown once.

Assays:
[1] = test system: Healthy subjects, ages 13-18; test: Barratt Impulsiveness Scale (BIS); format: in vivo, human; parameters: BIS Attention, Mean / BIS Motor, Mean / BIS Total, Mean: scale not given here
From the text: Study participants were screened by telephone prior to study enrollment. Healthy subjects, ages 13-18, with no significant medical conditions and no history of co-morbid psychiatric disorder, current Axis I or II diagnosis, or previous participation in a pharmacotherapeutic trial, were selected. Use of any psychotropic medication or any previous head injury resulting in loss of consciousness for 5 or more minutes were used as exclusion criteria. While no participant met criteria for a neuropsychiatric disorder at enrollment, clinical assessments were still completed throughout the study to evaluate changes in mood state. In addition, self-reports of sleep habits, lifestyle, and exercise routines were also administered at baseline as well as at each study visit to assess changes in health habits during study participation. Following the completion of Visit 1 assessment, participants were given their 28-day supply of citicoline (250 mg or 500 mg) or placebo, which was randomly assigned. They were instructed to take one capsule a day every day for the next 28 days. Visit 2 occurred fourteen days after Visit 1. At Visit 2, the remaining study pills were counted and participant dosage calendars were checked to ensure compliance with the protocol. Additional neuropsychological measures and clinical assessments were administered during this visit. Participants returned for Visit 3 fourteen days later, on the 28th day of their study participation. The pill bottle and the dosage calendar were collected from each participant. Urine and blood were again obtained. Participants also participated in similar clinical and neuropsychological testing and clinical measures that were given during visit 1. The BIS is a questionnaire is a scale used to measure impulsiveness. It includes three subscales: attentional, motor, and non-planning impulsiveness. A total score, or a sum of the three factors, was also calculated. The scale was administered at the first and third visits to assess presence or absence of symptoms of impulsiveness.

[2] = test system: Healthy subjects, ages 13-18; test: Finger Tap Test (motor speed and control); format: in vivo, human; details: for V3-V1 Finger Tap Test Mean Dominant Hand, Mean / V3-V1 Finger Tap Test Mean Non-Dominant Hand, Mean: Visit difference score; for Finger Tap Test Mean Dominant Hand V3, Mean / Finger Tap Test Mean Non-Dominant Hand V3, Mean: Visit 3; for Finger Tap Test Mean Dominant Hand, Mean / Finger Tap Test Mean Non-Dominant Hand, Mean: 250 mg/day
Protocol: The citicoline-treated group (N=51) were administered 250 mg/day (N=24) or 500 mg/day (N=27). Three finger tap tests were administered over a period of 28 days to measure motor speed and control. Results are expressed as mean ± SD. Statistical analysis was performed using Student’s t test. The p<0.05 was considered statistically significant. Study participants were screened by telephone prior to study enrollment. Healthy subjects, ages 13-18, with no significant medical conditions and no history of co-morbid psychiatric disorder, current Axis I or II diagnosis, or previous participation in a pharmacotherapeutic trial, were selected. Use of any psychotropic medication or any previous head injury resulting in loss of consciousness for 5 or more minutes were used as exclusion criteria. While no participant met criteria for a neuropsychiatric disorder at enrollment, clinical assessments were still completed throughout the study to evaluate changes in mood state. In addition, self-reports of sleep habits, lifestyle, and exercise routines were also administered at baseline as well as at each study visit to assess changes in health habits during study participation. Following the completion of Visit 1 assessment, participants were given their 28-day supply of citicoline (250 mg or 500 mg) or placebo, which was randomly assigned. They were instructed to take one capsule a day every day for the next 28 days. Visit 2 occurred fourteen days after Visit 1. At Visit 2, the remaining study pills were counted and participant dosage calendars were checked to ensure compliance with the protocol. Additional neuropsychological measures and clinical assessments were administered during this visit. Participants returned for Visit 3 fourteen days later, on the 28th day of their study participation. The pill bottle and the dosage calendar were collected from each participant. Urine and blood were again obtained. Participants also participated in similar clinical and neuropsychological testing and clinical measures that were given during visit 1. The finger tap test is used to measure motor speed and control. It is a common assessment measure administered by neuropsychologists to detect cognitive impairment. During the finger tap test, the participant is instructed to use his/her index finger to press a lever attached to a mechanical counter as many times as s/he can within the designated time period. The participant is instructed to move only their index finger, not the entire hand. The same process is completed using the index finger of the dominant and non-dominant hand. The finger tap test was administered at each of the three visits.

For C[N+](C)(C)CCOP(=O)(O)OP(=O)([O-])OC[C@H]1O[C@@H](n2ccc(N)nc2=O)[C@H](O)[C@@H]1O [citicoline, Cytidine 5′-diphosphocholine], the “BIS Attention, Mean” value ([1]; 250 mg/day, V1 (baseline)) was 18.52, the “BIS Motor, Mean” value ([1]; 250 mg/day, V1 (baseline)) was 22.22 and the “BIS Non-planning, Mean” value ([1]; 250 mg/day, V1 (baseline)) was 24.85. The “BIS Total, Mean” value ([1]; 250 mg/day, V1 (baseline)) was 65.59, the “BIS Attention, Mean” value ([1]; 250 mg/day, V3 (day 28)) was 18.59 and the “BIS Motor, Mean” value ([1]; 250 mg/day, V3 (day 28)) was 22.00. For the same compound, the “BIS Non-planning, Mean” value ([1]; 250 mg/day, V3 (day 28)) was 24.44, the “BIS Total, Mean” value ([1]; 250 mg/day, V3 (day 28)) was 65.04 and the “BIS Attention, Mean” value ([1]; 250 mg/day, V3-V1) was 0.07. The “BIS Motor, Mean” value ([1]; 250 mg/day, V3-V1) was -0.22, the “BIS Non-planning, Mean” value ([1]; 250 mg/day, V3-V1) was -0.41 and the “BIS Attention, Mean” value ([1]; 500 mg/day, V1 (baseline)) was 16.54. The “BIS Motor, Mean” value ([1]; 500 mg/day, V1 (baseline)) was 20.21, the “BIS Non-planning, Mean” value ([1]; 500 mg/day, V1 (baseline)) was 22.67 and the “BIS Total, Mean” value ([1]; 500 mg/day, V1 (baseline)) was 59.63. The “BIS Attention, Mean” value ([1]; 500 mg/day, V3 (day 28)) was 16.50, the “BIS Motor, Mean” value ([1]; 500 mg/day, V3 (day 28)) was 20.04 and 19.29 and the “BIS Non-planning, Mean” value ([1]; 500 mg/day, V3 (day 28)) was 21.71 and 22.42. The “BIS Total, Mean” value ([1]; 500 mg/day, V3 (day 28)) was 58.21, the “BIS Attention, Mean” value ([1]; 500 mg/day, V3-V1) was -0.04 and the “BIS Motor, Mean” value ([1]; 500 mg/day, V3-V1) was -1.00. For the same compound, the “BIS Non-planning, Mean” value ([1]; 500 mg/day, V3-V1) was -0.38, the “BIS Total, Mean” value ([1]; 500 mg/day, V3-V1) was -1.42 and the “V3-V1 Finger Tap Test Mean Dominant Hand, Mean” value ([2]; 250 mg/day group) was 4.87. For the same compound, the “V3-V1 Finger Tap Test Mean Non-Dominant Hand, Mean” value ([2]; 250 mg/day group) was 2.49, the “Finger Tap Test Mean Dominant Hand V3, Mean” value ([2]; 250 mg/day group) was 51.59 and the “Finger Tap Test Mean Non-Dominant Hand V3, Mean” value ([2]; 250 mg/day group) was 47.01. The “Finger Tap Test Mean Dominant Hand, Mean” value ([2]; V1 (baseline)) was 46.72, the “Finger Tap Test Mean Non-Dominant Hand, Mean” value ([2]; V1 (baseline)) was 44.52 and the “Finger Tap Test Mean Dominant Hand, Mean” value ([2]; V3 (day 28)) was 51.59. For the same compound, the “Finger Tap Test Mean Non-Dominant Hand, Mean” value ([2]; V3 (day 28)) was 47.01, the “Finger Tap Test Mean Dominant Hand V1, Mean” value ([2]; 500 mg/day group, Visit 1) was 49.44 and the “Finger Tap Test Mean Non-Dominant Hand V1, Mean” value ([2]; 500 mg/day group, Visit 1) was 44.89. For the same compound, the “V3-V1 Finger Tap Test Mean Dominant Hand, Mean” value ([2]; 500 mg/day group) was 2.61, the “V3-V1 Finger Tap Test Mean Non-Dominant Hand, Mean” value ([2]; 500 mg/day group) was 2.21 and the “Finger Tap Test Mean Dominant Hand V3, Mean” value ([2]; 500 mg/day group) was 52.05. The “Finger Tap Test Mean Non-Dominant Hand V3, Mean” value ([2]; 500 mg/day group) was 47.10.
